≈ marks a conversion by molar mass, not a printed value.
Assays:
[1] = Toxicity in orally dosed mouse; format: organism-based; details: in vivo, po
[2] = test system: KB; experiment: Cytotoxicity against human KB cells; format: functional
[3] = test system: Rous sarcoma virus; experiment: Antiviral activity against Rous sarcoma virus at 0.5 mg/kg; format: functional
[4] = test system: Bacillus subtilis; experiment: Antibacterial activity against Bacillus subtilis; format: functional

CC(=O)c1cccc(N[C@H]2[C@H](N)[C@@](NC(=O)N(C)C)([C@H](C)O)[C@@](C)(O)[C@@]2(O)COC(=O)c2c(C)cccc2O)c1 [PACTAMYCIN]
LD50 [1]: 10.7 mg/kg
MIC [2]: 0.003 mg/L (≈ 0.00537 µM)
inhibition in vivo at 0.5 mg/kg [3]: 30%
MIC [4]: 0.8 mg/L (≈ 1.43 µM)

— ChEMBL document CHEMBL1151336, “Recent Biosynthetic Studies on Antibiotics” (J Nat Prod, 1980)
